Data reported in BindingDB's records for patent US12509424 (Nippon Shinyaku, 2025).

Molecular target: Platelet-derived growth factor receptor beta (Homo sapiens, UniProt P09619)
Experiment: PDGFR-β Tyrosine Kinase Inhibitory Action
Procedure: This DMSO solution was diluted by 8 times with an assay buffer 1 (50 mM HEPES (pH 7.0), 0.02% NaN3, 0.01% Bovine Serum Albumin, 0.1 mM orthovanadate, 1 mM Dithiothreitol, 5 mM MgCl2, and 1 mM MnCl2) and further diluted by 5 times with an assay buffer 2 (50 mM HEPES (pH 7.0), 0.02% NaN3, 0.01% Bovine Serum Albumin, 0.1 mM orthovanadate, 1 mM Dithiothreitol, 5 mM MgCl2, 1 mM MnCl2, and 40 nM Supplemented Enzymatic Buffer (cisbio)).2. Measurement of PDGFR-β Tyrosine Kinase Inhibitory ActionFor the measurement, the HTRF KinEASE-TK kit from Cisbio Bioassays SAS was used. To a 384 well plate, the test substance solution was added at 4 μL each, then 2 μL of a PDGFR-β enzyme solution (final concentration of 1 ng/μL, Carna Biosciences, Inc.) and 4 μL of a substrate solution obtained by adding 0.6 μM ATP to TK substrate-3-biotin (cisbio) were added, and the solution was allowed to react at 30° C. for 30 minutes at a final concentration of the test substance being 0.01 to 10,000 nM.Thereafter, 10 μL of a detection solution (cisbio) was added to each well and allowed to react at 30° C. for 1 hour. The fluorescence intensity was measured with a microplate reader (Spectra Max M5, Molecular device).

Chain of Platelet-derived growth factor receptor beta (P09619 whole entry): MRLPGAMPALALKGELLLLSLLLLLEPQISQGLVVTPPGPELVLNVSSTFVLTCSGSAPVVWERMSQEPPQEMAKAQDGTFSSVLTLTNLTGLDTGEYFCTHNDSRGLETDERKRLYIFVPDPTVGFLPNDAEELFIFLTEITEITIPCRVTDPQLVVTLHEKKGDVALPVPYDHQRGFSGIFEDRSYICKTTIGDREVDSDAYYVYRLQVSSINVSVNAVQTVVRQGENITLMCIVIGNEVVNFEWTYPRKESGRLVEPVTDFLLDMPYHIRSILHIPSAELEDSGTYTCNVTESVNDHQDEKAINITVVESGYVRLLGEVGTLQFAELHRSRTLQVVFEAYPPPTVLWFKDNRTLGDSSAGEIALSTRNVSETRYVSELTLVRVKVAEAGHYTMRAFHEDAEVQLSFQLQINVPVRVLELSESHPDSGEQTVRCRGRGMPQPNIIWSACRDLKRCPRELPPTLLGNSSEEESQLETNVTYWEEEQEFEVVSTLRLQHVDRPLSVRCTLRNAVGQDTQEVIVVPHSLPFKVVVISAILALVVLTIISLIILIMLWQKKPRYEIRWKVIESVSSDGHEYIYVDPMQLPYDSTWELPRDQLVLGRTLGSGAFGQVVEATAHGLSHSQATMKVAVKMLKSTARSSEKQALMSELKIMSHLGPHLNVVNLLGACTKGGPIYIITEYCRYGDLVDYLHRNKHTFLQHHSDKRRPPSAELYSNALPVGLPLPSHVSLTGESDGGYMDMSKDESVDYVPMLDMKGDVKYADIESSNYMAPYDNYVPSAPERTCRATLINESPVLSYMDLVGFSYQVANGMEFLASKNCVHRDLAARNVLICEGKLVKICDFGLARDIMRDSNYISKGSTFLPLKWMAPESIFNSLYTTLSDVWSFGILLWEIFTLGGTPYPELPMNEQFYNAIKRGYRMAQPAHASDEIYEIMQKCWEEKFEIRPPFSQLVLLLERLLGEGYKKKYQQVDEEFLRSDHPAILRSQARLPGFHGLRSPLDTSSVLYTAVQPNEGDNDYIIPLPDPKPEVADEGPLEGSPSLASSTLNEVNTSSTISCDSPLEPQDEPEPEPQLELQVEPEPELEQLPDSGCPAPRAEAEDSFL

- IC50: 66 nM
Compound: CC(=O)Nc1ccc(CNc2cc(C(=O)N[C@H]3CCCC[C@@H]3O)ccc2C)cn1 [US12509424, Example 116]
